Experimental data as given in patent US20120230951A1 (priority 2011, published 2012).
Where a name gives a salt, the structure may show the parent alone.

Test system: GT-1a pRLuc H771b 75 S/I subgenomic replicon cell line
Assay: HCV GT-1a replicon luciferase reporter assay
Type: cell-based
Conditions: Hepatitis C virus, GT1A, 72 h, read-out: GT-1a (IC50) (nM)
Description: Determination of compounds HCV GT1b inhibitory replicon activity using the replicon luciferase reporter assay
The 2209-23 cell line was developed at Roche by stable transfection of the hepatoma cell line Huh-7 with a GT-1b Con1 subgenomic bicistronic replicon as previously described. Subgenomic replicon cell line was established in cured Huh7 cells, obtained from R. Bartenschlager (J. Virol. 2003 March; 77 (5):3007-19) The GT-1a H77 subgenomic replicon vector pRLuc H771b 75 S/I, was created by replacing the non structural region of the GT-1b Con1 subgenomic replicon by the one of the H77 strain, except for the first 75 amino acids of the NS3 protein that are from GT-1b Con1 strain. (J. Virol. 2001 77:5352-59) The GT-1a pRLuc H771b 75 S/I subgenomic replicon cell line was established in cured Huh7 cells, obtained from R. Bartenschlager. (J. Virol. 2003 March; 77 (5):3007-19)
All the subgenomic replicon cell lines were cultured in Dulbecco's Modified Eagle Medium (DMEM-Glutamax™-I; Invitrogen Cat #10569-010). The medium was supplemented with 10% Fetal Bovine Serum (Invitrogen Cat #10082-147), 1% penicillin/streptomycin (Mediatech Cat #30-002-CI) and 500 μg/ml of G418 (Mediatech Cat #30-234-CI). Cells were maintained at 37° C. in a humidified 5% CO2 atmosphere.
2209-23 cells were plated at a cell density of 5000 cells per well in 96 well plates (Becton Dickinson, Cat #35 3296). Cells were plated in 90 μl of Dulbecco's Modified Eagle Medium (DMEM-Glutamax™-I), (Invitrogen Cat #10569-010) medium was supplemented with 5% Fetal Bovine Serum (Invitrogen Cat #10082-147), 1% penicillin/streptomycin (Mediatech Cat #30-002-CI). The pRluc H771b 75 S/I cells were plated in 96-well plate at 3000 cells/well in DMEM-Glutamax™-I containing 5% FBS and 1% penicillin/streptomycin in 90 μl final volume. Cells were allowed to equilibrate for 24 hours at 37° C. and 5% CO2 at which time compounds were added. Compounds (or medium as a control) were added 24 hours post-plating in 3 fold dilutions at a final DMSO concentration of 1% in 10 ul volume. Renilla luciferase reporter signal was read 72 hours after addition of compounds using the Renilla Luciferase Assay System (Promega, cat #E2820). EC50 values were defined as the compound concentration at which a 50% reduction in the levels of renilla luciferase reporter was observed as compared to control samples in the absence of compound and was determined by non-linear fitting of compound dose-response data. The EC50 was approximated if maximum percentage inhibition was less than 90% and more than 70%.

SMILES	IC50 [nM]
COC(=O)N[C@H]1CCc2cccc3c2N(C1=O)[C@H](c1ncc(-c2cnc(-c4ccc5cc(-c6cnc([C@@H]7CCCN7C(=O)[C@@H](NC(=O)OC)C(C)C)[nH]6)ccc5c4)nc2)[nH]1)C3 [Compound I-17, ((2S,5S)-2-{5-[2-(6-{2-[(S)-1-((S)-2-Methoxycarbonylamino-3-methyl-butyryl)-pyrrolidin-2-yl]-3H-imidazol-4-yl}-naphthalen-2-yl)-pyrimidin-5-yl]-1H-imidazol-2-yl}-4-oxo-1,2,4,5,6,7-hexahydro-azepino[3,2,1-hi]indol-5-yl)-carbamic acid methyl ester]	3.2
COC(=O)N[C@H]1CCc2cccc3c2N(C1=O)[C@H](c1ncc(-c2cnc4cc(-c5ccc(-c6cnc([C@@H]7CCCN7C(=O)[C@@H](NC(=O)OC)C(C)C)[nH]6)cc5)ccc4c2)[nH]1)C3 [Compound I-18, ((2S,5S)-2-{5-[7-(4-{2-[(S)-1-((S)-2-Methoxycarbonylamino-3-methyl-butyryl)-pyrrolidin-2-yl]-3H-imidazol-4-yl}-phenyl)-quinolin-3-yl]-1H-imidazol-2-yl}-4-oxo-1,2,4,5,6,7-hexahydro-azepino[3,2,1-hi]indol-5-yl)-carbamic acid methyl ester trifluoacetic acid salt]	21.6
COC(=O)N[C@H]1CCc2cccc3c2N(C1=O)[C@H](c1ncc(-c2cnc4cc(-c5ccc(-c6[nH]c([C@@H]7CCCN7C(=O)[C@@H](NC(=O)OC)C(C)C)nc6Cl)cc5)ccc4c2)[nH]1)C3 [Compound I-20, ((2S,5S)-2-{5-[7-(4-{5-Chloro-2-[(S)-1-((S)-2-methoxycarbonylamino-3-methyl-butyryl)-pyrrolidin-2-yl]-3H-imidazol-4-yl}-phenyl)-quinolin-3-yl]-1H-imidazol-2-yl}-4-oxo-1,2,4,5,6,7-hexahydro-azepino[3,2,1-hi]indol-5-yl)-carbamic acid methyl ester trifluroacetic acid, trifluoroacetic acid salt]	12
COC(=O)N[C@H]1CCc2cccc3c2N(C1=O)[C@H](c1ncc(-c2ccc(-c4ccc5cc(-c6cnc([C@@H]7CCCN7C(=O)[C@@H](NC(=O)OC)C(C)C)[nH]6)ccc5n4)cc2)[nH]1)C3 [Compound I-21, ((2S,5S)-2-{4-[4-(6-{2-[(S)-1-((S)-2-Methoxycarbonylamino-3-methyl-butyryl)-pyrrolidin-2-yl]-1H-imidazol-4-yl}-quinolin-2-yl)-phenyl]-1H-imidazol-2-yl}-4-oxo-1,2,4,5,6,7-hexahydro-azepino[3,2,1-hi]indol-5-yl)-carbamic acid methyl ester trifluroacetic acid, trifluoroacetic acid salt]	0.395
COC(=O)N[C@H]1CCc2cccc3c2N(C1=O)[C@H](c1ncc(-c2ccc4nc(-c5ccc(-c6cnc([C@@H]7CCCN7C(=O)[C@@H](NC(=O)OC)C(C)C)[nH]6)cc5)ccc4c2)[nH]1)C3 [Compound I-22, ((2S,5S)-2-{5-[2-(4-{2-[(S)-1-((S)-2-Methoxycarbonylamino-3-methyl-butyryl)-pyrrolidin-2-yl]-1H-imidazol-4-yl}-phenyl)-quinolin-6-yl]-1H-imidazol-2-yl}-4-oxo-1,2,4,5,6,7-hexahydro-azepino[3,2,1-hi]indol-5-yl)-carbamic acid methyl ester trifluroacetic acid, trifluoroacetic acid salt]	1.45
COC(=O)N[C@H]1CCc2cccc3c2N(C1=O)[C@H](c1ncc(-c2ccc(-c4ccc5cc(-c6cnc([C@@H]7CCCN7C(=O)[C@@H](NC(=O)OC)C(C)C)[nH]6)ccc5c4)nc2)[nH]1)C3 [Compound I-23, ((2S,5S)-2-{4-[6-(6-{2-[(S)-1-((S)-2-Methoxycarbonylamino-3-methyl-butyryl)pyrrolidin-2-yl]-3H-imidazol-4-yl}-naphthalen-2-yl)-pyridin-3-yl]-1Himidazol-2-yl}-4-oxo-1,2,4,5,6,7-hexahydro-azepino[3,2,1-hi]indol-5-yl)-carbamic acid methyl ester di-trifluoroacetic acid salt]	0.767
COC(=O)N[C@H]1CCc2cccc3c2N(C1=O)[C@H](c1ncc(-c2ccc4cc(-c5ccc(-c6cnc([C@@H]7CCCN7C(=O)[C@@H](NC(=O)OC)C(C)C)[nH]6)cn5)ccc4c2)[nH]1)C3 [Compound I-24, ((2S,5S)-2-{4-[6-(5-{2-[(S)-1-((S)-2-Methoxycarbonylamino-3-methyl-butyryl)-pyrrolidin-2-yl]-3H-imidazol-4-yl}-pyridin-2-yl)-naphthalen-2-yl]-1H-imidazol-2-yl}-4-oxo-1,2,4,5,6,7-hexahydro-azepino[3,2,1-hi]indol-5-yl)-carbamic acid methyl ester di-trifluoroacetic acid salt]	1.16
COC(=O)N[C@H]1CCc2cc(C(N)=O)cc3c2N(C1=O)[C@H](c1ncc(-c2ccc(-c4ccc(-c5cnc([C@H]6CCCN6C(=O)[C@H](NC(=O)OC)C(C)C)[nH]5)cc4)cc2)[nH]1)C3 [Compound I-27, {(2S,5S)-9-Carbamoyl-2-[5-(4′-{2-[(R)-1-((R)-2-methoxycarbonylamino-3-methyl-butyryl)-pyrrolidin-2-yl]-3H-imidazol-4-yl}-biphenyl-4-yl)-1H-imidazol-2-yl]-4-oxo-1,2,4,5,6,7-hexahydro-azepino[3,2,1-hi]indol-5-yl}-carbamic acid methyl ester]	5.08
COC(=O)N[C@H]1CCc2cccc3c2N(C1=O)[C@H](c1ncc(-c2ccc(-c4ccc(-c5[nH]c([C@@H]6CCCN6C(=O)[C@@H](NC(=O)OC)C(C)C)nc5Cl)cc4)cc2)[nH]1)C3 [Compound I-30, {(2S,5S)-2-[5-(4′-{5-Chloro-2-[(S)-1-((S)-2-methoxycarbonylamino-3-methyl-butyryl)-pyrrolidin-2-yl]-3H-imidazol-4yl}-biphenyl-4-yl)-1H-imidazol-2-yl]-4-oxo-1,2,4,5,6,7-hexahydro-azepino[3,2,1-hi]indol-5-yl}-carbamic acid methyl ester]	1
COC(=O)N[C@H]1CCc2cccc3c2N(C1=O)[C@H](c1ncc(-c2ccc(-c4ccc(-c5[nH]c([C@@H]6CC(F)(F)CN6C(=O)[C@@H](NC(=O)OC)C(C)C)nc5Cl)cc4)cc2)[nH]1)C3 [Compound I-32, {(2S,5S)-2-[5-(4′-{5-Chloro-2-[(S)-4,4-difluoro-1-((S)-2-methoxycarbonylamino-3-methyl-butyryl)-pyrrolidin-2-yl]-3H-imidazol-4yl}-biphenyl-4-yl)-1H-imidazol-2-yl]-4-oxo-1,2,4,5,6,7-hexahydro-azepino[3,2,1-hi]indol-5-yl}-carbamic acid methyl ester]	5.78
COC(=O)N[C@H]1CCc2cccc3c2N(C1=O)[C@H](c1ncc(-c2ccc(-c4ccc(-c5cnc([C@@H]6C[C@H](O)CN6C(=O)[C@@H](NC(=O)OC)C(C)C)[nH]5)cc4)cc2)[nH]1)C3 [Compound I-33, {(2S,5S)-2-[5-(4′-{2-[(2S,4S)-4-Hydroxy-1-((S)-2-methoxycarbonylamino-3-methyl-butyryl)-pyrrolidin-2-yl]-3H-imidazol-4-yl}-biphenyl-4-yl)-1H-imidazol-2-yl]-4-oxo-1,2,4,5,6,7-hexahydro-azepino[3,2,1-hi]indol-5-yl}-carbamic acid methyl ester]	46.1
COC(=O)N[C@H]1CCc2cccc3c2N(C1=O)[C@H](c1ncc(-c2ccc(-c4ccc(-c5cnc([C@@H]6CCCN6C(=O)[C@@H](NC(=O)OC)C(C)C)[nH]5)cn4)cc2)[nH]1)C3 [Compound I-34, ((2S,5S)-2-{5-[4-(5-{2-[(S)-1-((S)-2-Methoxycarbonylamino-3-methyl-butyryl)-pyrrolidin-2-yl]-3H-imidazol-4-yl}-pyridin-2-yl)-phenyl]-1H-imidazol-2-yl}-4-oxo-1,2,4,5,6,7-hexahydro-azepino[3,2,1-hi]indol-5-yl)-carbamic acid methyl ester]	86.7
COC(=O)N[C@H]1CCc2cccc3c2N(C1=O)[C@H](c1ncc(-c2ccc(-c4ccc(-c5cnc([C@@H]6CCCN6C(=O)[C@@H](NC(=O)OC)C(C)C)[nH]5)cc4)cc2F)[nH]1)C3 [Compound I-36, {(2S,5S)-2-[5-(3-Fluoro-4′-{2-[(S)-1-((S)-2-methoxycarbonylamino-3-methyl-butyryl)-pyrrolidin-2-yl]-1H-imidazol-4-yl}-biphenyl-4-yl)-1H-imidazol-2-yl]-4-oxo-1,2,4,5,6,7-hexahydro-azepino[3,2,1-hi]indol-5-yl}-carbamic acid methyl ester]	13.8
